One experiment has as its system A375 (melanoma) cells. Put plainly: MTT assay, A375. It is filed as cell-based, human. The conditions noted are these: for reduction in cancer cell viability / anticancer potential (A375): MTT, 24 h, 0.004 mM to 0.5 mM. An excerpt:
(§1) As mentioned earlier, MMP-13 is overexpressed and functionally significant in various cancers, including melanoma and colorectal carcinoma. For instance, high MMP-13 levels have been correlated with metastasis and poor survival in melanoma patients. In colorectal cancer, elevated MMP-13 activity has been observed in tumors compared to normal mucosa, and its expression is associated with a worse prognosis. Based on computational studies, four out of the eleven designed compounds showing the most promising predicted activity against MMP-13 were selected for biological evaluation. For the MTT assay, NHDF cells were used as the healthy reference cell line, while A375 (melanoma) and HT-29 (colorectal adenocarcinoma cancer) cell lines were chosen as cancer models.
(§2) Experiments were conducted using two cancer cell lines and, as a control, a normal human dermal fibroblasts (NHDF; ATCC PCS-201-012). The A375 cell line (human melanoma, ATCC CRL-1619), and HT-29 cell line (human colorectal adenocarcinoma, ATCC HTB-38) were cultured in DMEM (Dulbecco’s Modified Eagle Medium, Institute of Immunology and Experimental Therapy (IITD), Wrocław, Poland) supplemented with 1% antibiotics (10 U/mL penicillin and 10 µg/mL streptomycin, Sigma-Aldrich, St Louis, MO, USA), 1% glutamine (Sigma-Aldrich, St Louis, MO, USA) and 10% fetal bovine serum (FBS, Gibco, Grand Island, NY, USA). For NHDF cultures, α-MEM (α-Minimum Essentials Medium, Institute of Immunology and Experimental Therapy (IITD), Poland) was used with the same supplement combination as for the cancer cell lines. All cells were maintained in a humidified incubator (INCO 105, Memmert GmbH, Schwabach, Germany) at 37 °C with 5% CO2 and 95% humidity. Cells were passaged routinely by trypsinization (twice a week). For the MTT (3-(4,5-simethylthiazol-2,5-diphenyltetrazolinum bromide), Sigma, St. Louis, MO, USA) assay, cells were used after 2–4 passages, when they reached approximately 80% confluence.
(§3) All tested compounds were dissolved in DMSO to obtain stock solutions with a final concentration of 50 mM (3a, 3b, 3e), 40 mM (3f, 3g, 3i, 3j), and 35 mM (3h, 3k). […] In the next step, 10 µL of each stock solution was added to 990 µL of supplemented medium.
(§4) The MTT assay was performed in 96-well plates, with a seeding density of 1 × 10^4 cells per well. All cell lines were incubated for 24 h in their respective media: α-MEM for (NHDF cells) and DMEM for (A375 and HT-29) cells. After incubation, the medium was removed and replaced with fresh medium containing the tested compounds at concentrations ranging from 0.004 mM to 0.5 mM. […] Absorbance was measured spectrophotometrically at a wavelength of 570 nm using a BioTek SYNERGY H1 microplate reader (Agilent, Santa Clara, CA, USA).
(Formazan colour is commonly taken as a measure of viable cells.)

For experiment [1], the target named is T1, human serum albumin (HSA) (Homo sapiens, UniProt P02768).
T1 construct: purchased Sigma-Aldrich
T1 sequence (P02768 25-609): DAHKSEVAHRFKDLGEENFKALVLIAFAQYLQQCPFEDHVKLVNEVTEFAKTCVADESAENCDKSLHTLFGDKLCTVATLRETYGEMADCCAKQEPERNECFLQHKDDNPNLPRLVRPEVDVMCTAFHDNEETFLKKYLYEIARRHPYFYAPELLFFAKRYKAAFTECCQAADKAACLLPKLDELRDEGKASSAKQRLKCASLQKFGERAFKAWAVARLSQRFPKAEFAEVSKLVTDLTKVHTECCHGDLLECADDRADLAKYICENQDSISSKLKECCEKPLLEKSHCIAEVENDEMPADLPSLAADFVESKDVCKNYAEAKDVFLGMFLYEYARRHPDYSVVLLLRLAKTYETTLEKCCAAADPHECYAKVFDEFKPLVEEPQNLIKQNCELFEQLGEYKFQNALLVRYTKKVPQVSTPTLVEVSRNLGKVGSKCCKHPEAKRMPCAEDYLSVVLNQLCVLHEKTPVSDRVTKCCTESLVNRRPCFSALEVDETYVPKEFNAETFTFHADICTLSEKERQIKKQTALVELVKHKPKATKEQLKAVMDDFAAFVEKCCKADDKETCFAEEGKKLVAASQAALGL
Put plainly: Fluorescence quenching titration of human serum albumin. Type of experiment: binding. Conditions: for ΔG^0 / ΔH^0 / ΔS^0: HSA complex formation; for ΔG^0: one value for 297-308 K; for ΔH^0 / ΔS^0: van't Hoff; for KSV·10^4: PBS pH 7.4. How it is done:
In the human albumin, the amino acid residue Trp214 in subdomain IIA is of particular significance in structural studies. Subdomain IIA is responsible for binding many drugs and endogenous compounds [37]. To investigate the interactions between HSA and the tested compounds, fluorescence spectroscopy was conducted. […] The Stern–Volmer constant with inner filter correction was applied, based on changes in absorbance and in the fluorescence intensity of excited Trp214 residues located in the protein binding pocket:(1) F0/Fcorr=1+kqτQ=1+KSV[Q] (2) Fcorr=Fobs10^(Aex+Aem)/2 where F0 is maximum fluorescence intensities protein without a quencher, Fcorr is the corrected florescence intensities, kq is the quenching rate constant of the molecules, τ is the average lifetime of the molecule (for biomolecules τ = 10^−8 s), [Q] is the concentration of quencher, Ksv is the Stern-Volmer constant, Fobs is the steady-state fluorescence intensity at the maximum wavelength with the quencher, Aex and Aem are the absorbance at excitation and emission wavelengths, respectively. The quenching rate constants (kq) are higher than 2 × 10^10 dm^3 mol^−1 s^−1; therefore, the quenching mechanism is static and supports complex formation.
The binding parameters were evaluated by a double logarithm regression curve by Equation (3):(3) logF0−F/F=logKb[…] where F0 is the maximum fluorescence intensity of a protein without a quencher, F is the maximum fluorescence intensity of the protein after a quencher addition, Kb is the binding constant, [Q] is the molar concentration of the quencher, and n is the binding stoichiometry.
The compounds studied can be arranged in accordance with the value of Kb, the strength of their interaction with HSA. In this ranking, 3d is the highest ranked, followed by 3c, 3b, and 3g in descending order of compatibility. Then, using Equations (4), and van’t Hoff function (5), the thermodynamic parameters of complex formation were determined and collected in Table 5, and Figure 10:(4) logKb=−ΔH^0/RT+[…] (5) ΔG^0=ΔH^0−TΔS^0=−RTlnKb where R is the gas constant (8.314 J mol^−1 K^−1), T is temperature, Kb is the binding constant, ΔH^0 is enthalpy, ΔS^0 is entropy, and ΔG^0 is free energy change.
To perform the UV-Vis and fluorometric titration measurements, all compounds were dissolved in dimethyl sulfoxide (DMSO) at a concentration of 1⸱10^−3 mol/dm^3. A 0.01 mol/dm^3 phosphate-buffered saline (PBS) solution with a pH of 7.4 (Sigma-Aldrich Chemie GmbH, St. Louis, MO, USA) was used to prepare a 1 × 10^−6 mol/dm^3 solution of human serum albumin (HSA) (Sigma-Aldrich Chemie GmbH, St. Louis, MO, USA). The fluorescence study was performed on a Cary Eclipse 500 spectrophotometer (Agilent, Santa Clara, CA, USA). The fluorometric spectra were recorded in a quartz cuvette with a 10 mm path length over an emission range of 280–400 nm, with an excitation wavelength of 280 nm and a PMT voltage of 560 V. The UV-Vis spectra were recorded on a Jasco V-750 spectrophotometer (Jasco, Tokyo, Japan) with the following parameters: a wavelength range of 190–400 nm, a data interval of 0.1 nm, a scan speed of 400 nm/min, and automatic baseline correction. Quartz cuvettes with an optical path length of 10 mm were used. […] The titrations of the protein solution with the studied compounds were performed in 0.5 molar increments, from 0.0 to 2.0 followed by 1.0 increments up to a final molar ratio of 11.0.

The subject of experiment [2] is HT-29 (colorectal adenocarcinoma) cells. Put plainly: MTT assay, HT-29. The conditions noted are these: for reduction in cancer cell viability / anticancer potential (HT-29): MTT, 24 h, 0.004 mM to 0.5 mM. It is filed as cell-based, human.
Source text: as §1, §2, §3, §4

In the case of `Cc1cc(C)c(C(=O)NCC(=O)NCc2ccc(Cl)cc2)c(S)n1` [Compound 3c, N-{2-[(4-chlorobenzyl)amino]-2-oxoethyl}-4,6-dimethyl-2-sulfanylpyridine-3-carboxamide], in the experiment with A375 (melanoma) cells, the “reduction in cancer cell viability / anticancer potential (A375)” value was “strongest reduction in cancer cell viability”. Moreover, in experiment [1], the “ΔG^0” value was -4.319 kcal/mol, the “ΔH^0” value is -45.696 kcal/mol and the “ΔS^0” value is −571.09 J·mol^−1·K^−1. For the same molecule, in experiment [1] (T 297 K), the “kq·10^12” value is recorded as 2.69 10^12 dm^3·mol^−1·s^−1, the “n (binding stoichiometry)” value amounted to 0.84 and the “KSV·10^4” value is on record as 2.69 10^4 dm^3·mol^−1. Further, in experiment [1] (T 303 K), the “kq·10^12” value was 2.34 10^12 dm^3·mol^−1·s^−1, the “n (binding stoichiometry)” value turned out to be 0.74 and the “KSV·10^4” value is on record as 2.34 10^4 dm^3·mol^−1. For the same molecule, in experiment [1] (T 308 K), the “kq·10^12” value was 2.07 10^12 dm^3·mol^−1·s^−1, the “n (binding stoichiometry)” value is on record as 0.65 and the “KSV·10^4” value is listed as 2.07 10^4 dm^3·mol^−1. Besides, the “reduction in cancer cell viability / anticancer potential (HT-29)” value in experiment [2] is reported as “strongest reduction in cancer cell viability”.
For `Cc1cc(C)c(C(=O)NCC(=O)NCc2ccc(Oc3ccccc3)cc2)c(S)n1` [Compound 3b, 4,6-dimethyl-N-{2-[(4-phenoxybenzyl)amino]-2-oxoethyl}-2-sulfanylpyridine-3-carboxamide], in the experiment with A375 (melanoma) cells (at a concentration of 0.5 mM), the “selectivity ratio A375:NHDF” value is on record as 0.56. Further, in experiment [1], the “ΔG^0” value was -3.176 kcal/mol, the “ΔH^0” value is -96.119 kcal/mol and the “ΔS^0” value is given as −1282.70 J·mol^−1·K^−1. Besides, in experiment [1] (T 297 K), the “kq·10^12” value is 1.21 10^12 dm^3·mol^−1·s^−1, the “n (binding stoichiometry)” value is 0.89 and the “KSV·10^4” value is 1.21 10^4 dm^3·mol^−1. Besides, in experiment [1] (T 303 K), the “kq·10^12” value is listed as 1.06 10^12 dm^3·mol^−1·s^−1, the “n (binding stoichiometry)” value was 0.60 and the “KSV·10^4” value was 1.06 10^4 dm^3·mol^−1. Besides, in experiment [1] (T 308 K), the “kq·10^12” value is 0.86 10^12 dm^3·mol^−1·s^−1, the “n (binding stoichiometry)” value came out at 0.44 and the “KSV·10^4” value was 0.86 10^4 dm^3·mol^−1. For the same molecule, the “selectivity ratio HT-29:NHDF” value in experiment [2] (at a concentration of 0.5 mM) stood at 0.43.
In the case of `Cc1cc(C)c(C(=O)NCC(=O)NCc2ccccc2Cl)c(S)n1` [Compound 3d, N-{2-[(2-chlorobenzyl)amino]-2-oxoethyl}-4,6-dimethyl-2-sulfanylpyridine-3-carboxamide], the “reduction in cancer cell viability / anticancer potential (A375)” value in the experiment on A375 (melanoma) cells is listed as “strongest reduction in cancer cell viability”. In experiment [1], the “ΔG^0” value is -4.156 kcal/mol, the “ΔH^0” value is -45.471 kcal/mol and the “ΔS^0” value is given as −570.21 J·mol^−1·K^−1. In experiment [1] (T 297 K), the “kq·10^12” value is recorded as 2.51 10^12 dm^3·mol^−1·s^−1, the “n (binding stoichiometry)” value is reported as 0.82 and the “KSV·10^4” value was 2.51 10^4 dm^3·mol^−1. For the same molecule, in experiment [1] (T 303 K), the “kq·10^12” value is recorded as 2.13 10^12 dm^3·mol^−1·s^−1, the “n (binding stoichiometry)” value is 0.73 and the “KSV·10^4” value was 2.13 10^4 dm^3·mol^−1. For the same molecule, in experiment [1] (T 308 K), the “kq·10^12” value was 1.88 10^12 dm^3·mol^−1·s^−1, the “n (binding stoichiometry)” value worked out at 0.63 and the “KSV·10^4” value is given as 1.88 10^4 dm^3·mol^−1. For the same molecule, the “reduction in cancer cell viability / anticancer potential (HT-29)” value in experiment [2] is recorded as “strongest reduction in cancer cell viability”.
In the case of `Cc1cc(C)c(C(=O)NCC(=O)NCc2ccccc2)c(S)n1` [Compound 3g, 4,6-dimethyl-N-[2-(benzylamino)-2-oxoethyl]-2-sulfanylpyridine-3-carboxamide], the “reduction in cancer cell viability / anticancer potential (A375)” value in the experiment with A375 (melanoma) cells is on record as “only moderate anticancer potential”. Also, in experiment [1], the “ΔG^0” value was -2.12 kcal/mol, the “ΔH^0” value is -44.077 kcal/mol and the “ΔS^0” value was −579.14 J·mol^−1·K^−1. Moreover, in experiment [1] (T 297 K), the “kq·10^12” value was 0.87 10^12 dm^3·mol^−1·s^−1, the “n (binding stoichiometry)” value amounted to 0.60 and the “KSV·10^4” value was 0.87 10^4 dm^3·mol^−1. In addition, in experiment [1] (T 303 K), the “kq·10^12” value is reported as 0.72 10^12 dm^3·mol^−1·s^−1, the “n (binding stoichiometry)” value was found to be 0.54 and the “KSV·10^4” value is listed as 0.72 10^4 dm^3·mol^−1. In addition, in experiment [1] (T 308 K), the “kq·10^12” value is reported as 0.63 10^12 dm^3·mol^−1·s^−1, the “n (binding stoichiometry)” value was 0.42 and the “KSV·10^4” value is listed as 0.63 10^4 dm^3·mol^−1. The “reduction in cancer cell viability / anticancer potential (HT-29)” value in experiment [2] is on record as “only moderate anticancer potential”.

The values are drawn from article PMC12736008, “New Dimethylpyridine-3-Carboxamide Derivatives as MMP-13 Inhibitors with Anticancer Activity” (Molecules, 2025).
